The numbers were not newly measured in patent publication US7056909B2, “Alpha v integrin receptor antagonists” (Merck & Co., Inc., priority 2000, dated 2006), which cites them from elsewhere.

For the data set the following is noted: postmenopausal osteoporotic women, median of 22 months of treatment.

In the case of “hPTH(1–34): human parathyroid hormone 1-34 fragment (SVSEIQLMHNLGKHLNSMERVEWLRKKLQDVHNF; Parathyroid hormone; UniProt P01270 32-65, looked up, fragment)”, the “reduction in nonvertebral fractures” value is 54% and the “reduction in spine fractures” value is recorded as not below 65%.
